# Source: patent US5493027A, “Anticonvulsive agents and uses thereof” (priority 1993, dated 1996)
# Where two headings read alike, the source gives them in different places.
# Tests used:
# [1] = test system: pentylenetetrazole (Metrazol) induced seizures; test: Subcutaneous pentylenetetrazole (Metrazol) seizure threshold test (Met) in mice; format: in vivo, male Carworth Farms number-1 mice; conditions: for minimal effective dose: Mus musculus, ip; for (Maximum Ineffective) Intraperitoneal Dose, Met: Table 7, value in parentheses = maximum ineffective dose; for Sc MET / Sc MET repeated: protected: mice i.p.; for Sc MET repeated: protected: repeat
# Method: (§1) Compounds were screened for anticonvulsant activity in male Carworth Farms number-1 mice. Test solutions of all compounds were prepared in 30% polyethylene glycol 400, and animals were dosed intraperitoneally at either 30 minutes or 4 hours prior to testing. Testing was conducted on four mice at each of three dose levels (30, 100, and 300 mg/kg).
# (§2) In the subcutaneous pentylenetetrazole (Metrazol) seizure threshold test(met), 85 mg/kg pentylenetetrazole was administered as a 0.5% solution in the posterior midline. Protection in this test was defined as a failure to observe a single episode of clonic spasms of at least 5 s duration during the 30 minute period following administration of the convulsive agent.
# as §1, with “Biological testing--Compounds” for “Compounds”, “number-one” for “number-1”, “min” for “minutes”, “h” for “hours”
# as §2, with “test (Met),” for “test(met),”, “min” for “minute”
# [2] = Rotorod test for neurological deficit (TOX) in mice; format: in vivo, male Carworth Farms number-1 mice; conditions: mouse, in vivo, ip
# Method: as §1
# (§3) Animals were also tested for neurological deficit using the rotorod. After treatment, the animal was placed on a 1 inch diameter knurled plastic rod rotating at 6 rpm. Neurologic deficit was defined as the failure of the animal to remain on the rod for 1 minute.
# as §1, with “Biological testing--Compounds” for “Compounds”, “number-one” for “number-1”, “min” for “minutes”, “h” for “hours”
# (§4) Animals were also tested for neurological deficit using the rotorod. After treatment, the animal was placed on a 1 inch diameter knurled plastic rod rotating at 6 rpm. Neurologic deficit was defined as the failure of the animal to remain on the rod for 1 min.
# [3] = test system: quinolinic acid induced seizures; conditions: intracerebroventricular, CD-1 mice (Baron et al., 1990); cited from earlier work
# [4] = test system: maximal electroshock seizures (MES); test: animal or person; format: in vivo, male Carworth Farms number-1 mice; conditions: for minimal effective dose: Mus musculus, ip; for MES: mice i.p.
# Method: as §1
# (§5) Maximal electroshock seizures (MES) were elicited with a 60 cycle alternatiing current of 50-mA intensity (five to seven times that necessary to evoke minimal electroshock threshold seizures). Current was delivered via corneal electrodes for 0.2 s. A drop of 0.9% saline was instilled in the eye prior to application of electrodes. Abolition of the hindlimb tonic extension component of the seizure was defined as protection in the MES test.
# as §1, with “Biological testing--Compounds” for “Compounds”, “number-one” for “number-1”, “min” for “minutes”, “h” for “hours”
# as §5, with “alternating” for “alternatiing”
# [5] = biological target: T1, strychnine-insensitive glycine binding site of the NMDA receptor (Rattus norvegicus, UniProt P35439); test: Inhibition of [3H]glycine specific binding (strychnine-insensitive) in rat cerebral cortex membranes; conditions: 10 uM compound
# T1 construct: Membranes were prepared from rat cerebral cortex; from tissue; host or cells: rat cerebral cortex, "buffy coat" membranes
# Method: Binding Studies--Inhibition of [^3 H]glycine specific binding was assayed using [^3 H]glycine (43 Ci/mmol) obtained from DuPont-New England Nuclear. […] Membranes were prepared from rat cerebral cortex and assays were conducted in Na-free 50 mM HEPES (Sigma) at pH 7.4. Membranes were incubated in a final volume of 1 ml with 20 nM [^3 H]glycine and a 10 uM concentration of the test compound. Although experience has shown that [^3 H]glycine binding in this preparation is strychnine insensitive, 10 uM strychnine was added to the assay mixtures to eliminate the possibility that any effects studied could be mediated through a strychnine-sensitive process. Incubation was continued for 20 min at 4° C. Non-specific binding was determined in the presence of 1 mM glycine and subtracted. All conditions were tested in triplicate in 3 different assays. Binding was terminated using a Brandel M-24C cell harvester employing rapid filtration through GF/C glass fiber filters pre-soaked in 1% (V/V) polyethylenimine. Filters were washed twice with 5 ml buffer cooled to 4° C. Radioactivity bound to the filters was determined with a Beckman LS-500OTD liquid scintillation counter.
# [6] = test system: seizures induced by electroshock and pentylenetetrazole; test: Anticonvulsant testing, overall (MES and Met); format: in vivo, male Carworth Farms number-1 mice; conditions: for minimal effective dose: Mus musculus, ip, read-out: dose level with anticonvulsant activity (test not given)
# Method: as §1, §5, §2
# as §1, with “Biological testing--Compounds” for “Compounds”, “number-one” for “number-1”, “min” for “minutes”, “h” for “hours”
# as §5, with “alternating” for “alternatiing”
# as §2, with “test (Met),” for “test(met),”, “min” for “minute”
# [7] = test system: potentiating action of glycine on current elicited by NMDA; conditions: whole cells (Huettner, 1989); cited from earlier work
# [8] = biological target: T1, strychnine-insensitive glycine binding site of the NMDA receptor; conditions: literature value of the standard; read-out: IC50 for glycine binding in this test system; cited from earlier work
# [9] = biological target: strychnine-insensitive glycine binding site; conditions: see also Kemp et al., 1988; cited from earlier work
# NMDA receptor = conditions: cited from earlier work
# quisqualate receptor = conditions: cited from earlier work
# kainate receptor = conditions: cited from earlier work
# [10] = test system: NMDA-associated glycine site; conditions: Xenopus oocytes injected with rat brain mRNA (Kleckner and Dingledine, 1989); cited from earlier work
# anticonvulsant activity = conditions: Wong et al., 1986; Singh et al., 1990; cited from earlier work
# [11] = test system: neurological deficit (rotorod); test: Rotorod test for neurological deficit (TOX) in mice; format: in vivo, male Carworth Farms number-1 mice; conditions: mouse, in vivo
# Method: as §1, §3
# as §1, with “Biological testing--Compounds” for “Compounds”, “number-one” for “number-1”, “min” for “minutes”, “h” for “hours”
# as §4
# [12] = Solubility in aqueous solutions and in chloroform and other non-polar solvents; format: physicochemical
# [13] = test system: inhibitory (strychnine-sensitive) glycine receptors in the spinal cord; conditions: White et al. 1989; Huettner 1989; cited from earlier work
# [14] = Table 7, value without parentheses = effective dose, read-out: Effective Intraperitoneal Dose, Met
# [15] = mice, intraperitoneal, read-out: dose active in Met test
# [16] = Table 7, value without parentheses = effective dose, read-out: Effective Intraperitoneal Dose, MES
# [17] = mice, intraperitoneal, read-out: dose active in MES test
smiles,measurement,setting,value
"O=C(O)c1cc(O)c2c(Cl)cc(Cl)cc2n1 [5,7-di-Cl-kyn-2-COOH]",minimal effective dose,[1]; [14],300 mg/kg
same,minimal effective dose,[1]; [15],300 mg/kg
same,Met activity,"[1]; mice, intraperitoneal",mild Met activity
same,NOAEL,[2],300 mg/kg
same,protection against quinolinic acid induced seizures,[3],protect against quinolinic acid induced seizures
"CCOC(=O)c1cc(O)c2c(F)cc(F)cc2n1 [5,7-di-F-kyn-2-ethyl ester]",minimal effective dose,[4]; [16],300 mg/kg
same,minimal effective dose,[4]; [17],300 mg/kg
same,MES activity,"[4]; mice, intraperitoneal",MES activity at this dose level
same,"(Maximum Ineffective) Intraperitoneal Dose, Met",[1],300 mg/kg
same,NOAEL,[2],300 mg/kg
"O=C(O)c1cc2cc(F)ccc2[nH]1 [5-F-indole-2-COOH, 5-fluoro-indole-2-carboxylic acid]",minimal effective dose,"[4]; read-out: Effective Intraperitoneal Dose, MES",100 mg/kg
same,minimal effective dose,[4]; read-out: dose active in MES test,100 mg/kg
same,"(Maximum Ineffective) Intraperitoneal Dose, Met",[1],300 mg/kg
same,NOAEL,"[2]; Table 7, value in parentheses = maximum ineffective dose, read-out: (Maximum Ineffective) Intraperitoneal Dose, Rotorod",300 mg/kg
same,[3H]glycine binding inhibition,[5],most potent inhibitor of [^3 H]glycine binding in this group
same,minimal effective dose,[6],100 mg/kg
same,inhibition of potentiating action of glycine on NMDA current,[7],inhibit competitively the potentiating action of glycine
"CCCCOC(=O)c1cc2cc(F)ccc2[nH]1 [5-F-indole-2-butyl ester, butyl ester of 5-fluoro-indole-2-carboxylic acid]",minimal effective dose,[1]; [14],300 mg/kg
same,minimal effective dose,[1]; [15],300 mg/kg
same,NOAEL,[2],300 mg/kg
same,[3H]glycine binding inhibition,[5],binding characteristics were similar to those of the ethyl ester
same,minimal effective dose,"[6]; mice, intraperitoneal",300 mg/kg
"CCOC(=O)c1cc2cc(F)ccc2[nH]1 [5-F-indole-2-ethyl ester, 5-fluoro-indole-2-ethyl carboxylate]",minimal effective dose,[4]; [16],100 mg/kg
same,minimal effective dose,[4]; [17],100 mg/kg
same,minimal effective dose,[1]; [14],300 mg/kg
same,minimal effective dose,[1]; [15],300 mg/kg
same,NOAEL,[2],300 mg/kg
"O=C(O)c1cc(O)c2ccc(Cl)cc2n1 [7-Cl-Kyn, 7-chloro-kynurenic acid]",IC50,[8],0.27 to 0.56 µM
same,IC50,[9],0.56 µM
same,IC50,"NMDA receptor; see also Kemp et al., 1988",169 µM
same,IC50,"quisqualate receptor; see also Kemp et al., 1988",153 µM
same,IC50,"kainate receptor; see also Kemp et al., 1988, unit inferred",> 1000 µM
same,more potent as antagonist at the NMDA-associated glycine site than at the receptor mediating kainate currents,[10],approximately 40 fold
same,"anticonvulsant activity (words, literature)",anticonvulsant activity,demonstrate anticonvulsant activity
C[C@]12N[C@H](Cc3ccccc31)c1ccccc12 [MK-801],"anticonvulsant activity (words, literature)",anticonvulsant activity,demonstrate anticonvulsant activity
"CCOC(=O)c1cc(NC)c2c(Cl)cc(Cl)cc2n1 [ethyl 4-methylamino-5,7-dichloro-2-quinoline carboxylate]",MES,"[4]; 30 minutes, 30 mg/kg",0/1
same,MES,"[4]; 30 minutes, 100 mg/kg",0/3
same,MES,"[4]; 30 minutes, 300 mg/kg",0/1
same,MES,"[4]; 4 hours, 30 mg/kg",0/1
same,MES,"[4]; 4 hours, 100 mg/kg",0/3
same,MES,"[4]; 4 hours, 300 mg/kg",0/1
same,minimal effective dose,[4]; [17],30 mg/kg
same,Sc MET,"[1]; 30 minutes, 30 mg/kg",1/1
same,Sc MET,"[1]; 30 minutes, 100 mg/kg",1/1
same,Sc MET,"[1]; 30 minutes, 300 mg/kg",1/1
same,Sc MET,"[1]; 4 hours, 30 mg/kg",0/1
same,Sc MET,"[1]; 4 hours, 100 mg/kg",0/1
same,Sc MET,"[1]; 4 hours, 300 mg/kg",0/1
same,minimal effective dose,[1]; [14],30 mg/kg
same,minimal effective dose,[1]; [15],30 mg/kg
same,Sc MET repeated: protected,"[1]; 30 minutes, 30 mg/kg",1/4
same,Sc MET repeated: protected,"[1]; 30 minutes, 100 mg/kg",2/4
same,Sc MET repeated: protected,"[1]; 30 minutes, 300 mg/kg",4/4
same,NOAEL,[2],300 mg/kg
same,Sc MET repeated: toxic,[11]; 30 mg/kg,0/4
same,Sc MET repeated: toxic,[11]; 100 mg/kg,0/4
same,Sc MET repeated: toxic,[11]; 300 mg/kg,0/4
same,[3H]glycine binding inhibition,[5],poor binding inhibition
same,minimal effective dose,"[6]; mice, intraperitoneal",≤ 100 mg/kg
same,CLASS,"[6]; Phase I Identification: mice, i.p., classes not defined in the patent",1
same,anticonvulsant activity (words),"[6]; mice, intraperitoneal",high anticonvulsant activity
same,anticonvulsant activity (words),"[6]; mice, intraperitoneal, listed as ethyl 4-methylamino-5,7-dichloro-2-quinoline carboxylate",most potent anticonvulsant
same,anticonvulsant activity (words),"[6]; mice, intraperitoneal, listed as ethyl-4-methylamino-5,7-dichloro-2-quinoline carboxylate",particularly effective anticonvulsant agent
same,solubility in chloroform and other non-polar solvents,[12],appreciably soluble in chloroform and other non-polar solvents
O=C(O)c1cc2ccccc2[nH]1 [indole-2-carboxylic acid],activity at strychnine-sensitive sites,[13],inactive
"O=C(O)c1cc(O)c2ccccc2n1 [kynurenic acid, 4-hydroxy-2-quinolinecarboxylic acid]",excitatory amino acid antagonist activity at NMDA receptors,NMDA receptor,nonselective excitatory amino acid antagonist
same,excitatory amino acid antagonist activity at quisqualate receptors,quisqualate receptor,nonselective excitatory amino acid antagonist
same,excitatory amino acid antagonist activity at kainate receptors,kainate receptor,nonselective excitatory amino acid antagonist
same,activity at strychnine-sensitive sites,[13],inactive
